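Interpolation was linear, between the two tested concentrations surrounding the appropriate level; five concentrations were tested over 48 hours in 96-well plates. At the TGI there is no net growth.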
Tests used:
Assay in all cases: NCI anticancer screen, dose series, 48 h
786-0 renal = test system: 786-0 renal
A498 renal = test system: A498 renal
A549 NSCLC = test system: A549 NSCLC
BT-549 breast = test system: BT-549 breast
CAKI-1 renal = test system: CAKI-1 renal
CCRF-CEM leukemia = test system: CCRF-CEM leukemia
COLO 205 colon = test system: COLO 205 colon
DU-145 prostate = test system: DU-145 prostate
HCT-116 colon = test system: HCT-116 colon
HCT-15 colon = test system: HCT-15 colon
HL-60(TB) leukemia = test system: HL-60(TB) leukemia
HOP-62 NSCLC = test system: HOP-62 NSCLC
HOP-92 NSCLC = test system: HOP-92 NSCLC
HS 578T breast = test system: HS 578T breast
HT29 colon = test system: HT29 colon
IGROV1 ovarian = test system: IGROV1 ovarian
K-562 leukemia = test system: K-562 leukemia
KM12 colon = test system: KM12 colon
LOX IMVI melanoma = test system: LOX IMVI melanoma
M14 melanoma = test system: M14 melanoma
MALME-3M melanoma = test system: MALME-3M melanoma
MCF7 breast = test system: MCF7 breast
MDA-MB-231 breast = test system: MDA-MB-231 breast
MDA-MB-435 = test system: MDA-MB-435
MDA-N = test system: MDA-N
MOLT-4 leukemia = test system: MOLT-4 leukemia
NCI-H226 lung = test system: NCI-H226 lung
NCI-H23 lung = test system: NCI-H23 lung
NCI-H460 lung = test system: NCI-H460 lung
NCI/ADR-RES ovarian = test system: NCI/ADR-RES ovarian
OVCAR-3 ovarian = test system: OVCAR-3 ovarian
OVCAR-4 ovarian = test system: OVCAR-4 ovarian
OVCAR-8 ovarian = test system: OVCAR-8 ovarian
PC-3 prostate = test system: PC-3 prostate
RPMI-8226 leukemia = test system: RPMI-8226 leukemia
RXF 393 renal = test system: RXF 393 renal
SF-268 CNS = test system: SF-268 CNS
SF-539 CNS = test system: SF-539 CNS
SK-MEL-2 melanoma = test system: SK-MEL-2 melanoma
SK-MEL-28 melanoma = test system: SK-MEL-28 melanoma
SK-MEL-5 melanoma = test system: SK-MEL-5 melanoma
SK-OV-3 ovarian = test system: SK-OV-3 ovarian
SN12C renal = test system: SN12C renal
SNB-19 CNS = test system: SNB-19 CNS
SNB-75 CNS = test system: SNB-75 CNS
SR leukemia = test system: SR leukemia
SW-620 colon = test system: SW-620 colon
T-47D breast = test system: T-47D breast
TK-10 renal = test system: TK-10 renal
U251 CNS = test system: U251 CNS
UACC-257 melanoma = test system: UACC-257 melanoma
UACC-62 melanoma = test system: UACC-62 melanoma
UO-31 renal = test system: UO-31 renal
ACHN renal = test system: ACHN renal
EKVX NSCLC = test system: EKVX NSCLC
HCC-2998 colon = test system: HCC-2998 colon
NCI-H522 lung = test system: NCI-H522 lung
OVCAR-5 ovarian = test system: OVCAR-5 ovarian
SF-295 CNS = test system: SF-295 CNS

Structure (SMILES): NS(=O)(=O)c1ccc(NC(=O)c2cc([N+](=O)[O-])cc([N+](=O)[O-])c2)cc1
- TGI (786-0 renal): > 100 µM
- TGI (A498 renal): > 100 µM
- TGI (A549 NSCLC): > 100 µM
- TGI (BT-549 breast): > 100 µM
- TGI (CAKI-1 renal): > 100 µM
- TGI (CCRF-CEM leukemia): > 100 µM
- TGI (COLO 205 colon): 51.8 µM
- TGI (DU-145 prostate): > 100 µM
- TGI (HCT-116 colon): > 100 µM
- TGI (HCT-15 colon): > 100 µM
- TGI (HL-60(TB) leukemia): 97.4 µM
- TGI (HOP-62 NSCLC): > 100 µM
- TGI (HOP-92 NSCLC): 91.3 µM
- TGI (HS 578T breast): > 100 µM
- TGI (HT29 colon): > 100 µM
- TGI (IGROV1 ovarian): 79.9 µM
- TGI (K-562 leukemia): > 100 µM
- TGI (KM12 colon): > 100 µM
- TGI (LOX IMVI melanoma): 78.1 µM
- TGI (M14 melanoma): > 100 µM
- TGI (MALME-3M melanoma): 57.2 µM
- TGI (MCF7 breast): 53.9 µM
- TGI (MDA-MB-231 breast): > 100 µM
- TGI (MDA-MB-435): 35 µM
- TGI (MDA-N): 47.2 µM
- TGI (MOLT-4 leukemia): > 100 µM
- TGI (NCI-H226 lung): > 100 µM
- TGI (NCI-H23 lung): > 100 µM
- TGI (NCI-H460 lung): > 100 µM
- TGI (NCI/ADR-RES ovarian): > 100 µM
- TGI (OVCAR-3 ovarian): 84.9 µM
- TGI (OVCAR-4 ovarian): 79.2 µM
- TGI (OVCAR-8 ovarian): > 100 µM
- TGI (PC-3 prostate): 86.8 µM
- TGI (RPMI-8226 leukemia): > 100 µM
- TGI (RXF 393 renal): > 100 µM
- TGI (SF-268 CNS): > 100 µM
- TGI (SF-539 CNS): > 100 µM
- TGI (SK-MEL-2 melanoma): > 100 µM
- TGI (SK-MEL-28 melanoma): > 100 µM
- TGI (SK-MEL-5 melanoma): > 100 µM
- TGI (SK-OV-3 ovarian): > 100 µM
- TGI (SN12C renal): 90.7 µM
- TGI (SNB-19 CNS): > 100 µM
- TGI (SNB-75 CNS): > 100 µM
- TGI (SR leukemia): > 100 µM
- TGI (SW-620 colon): > 100 µM
- TGI (T-47D breast): 85.8 µM
- TGI (TK-10 renal): > 100 µM
- TGI (U251 CNS): > 100 µM
- TGI (UACC-257 melanoma): 32 µM
- TGI (UACC-62 melanoma): 54.2 µM
- TGI (UO-31 renal): > 100 µM

Structure (SMILES): Cc1ccc(/C=C2\N=C(N3CCCCC3)NC2=O)cc1
- TGI (786-0 renal): > 100 µM
- TGI (A549 NSCLC): > 100 µM
- TGI (ACHN renal): > 100 µM
- TGI (BT-549 breast): > 100 µM
- TGI (CAKI-1 renal): > 100 µM
- TGI (CCRF-CEM leukemia): > 100 µM
- TGI (COLO 205 colon): > 100 µM
- TGI (DU-145 prostate): > 100 µM
- TGI (EKVX NSCLC): > 100 µM
- TGI (HCC-2998 colon): > 100 µM
- TGI (HCT-116 colon): > 100 µM
- TGI (HCT-15 colon): > 100 µM
- TGI (HL-60(TB) leukemia): > 100 µM
- TGI (HOP-62 NSCLC): > 100 µM
- TGI (HOP-92 NSCLC): > 100 µM
- TGI (HS 578T breast): > 100 µM
- TGI (HT29 colon): > 100 µM
- TGI (KM12 colon): > 100 µM
- TGI (LOX IMVI melanoma): > 100 µM
- TGI (M14 melanoma): > 100 µM
- TGI (MALME-3M melanoma): > 100 µM
- TGI (MCF7 breast): > 100 µM
- TGI (MDA-MB-231 breast): > 100 µM
- TGI (MDA-MB-435): > 100 µM
- TGI (MDA-N): > 100 µM
- TGI (MOLT-4 leukemia): > 100 µM
- TGI (NCI-H226 lung): > 100 µM
- TGI (NCI-H23 lung): > 100 µM
- TGI (NCI-H522 lung): > 100 µM
- TGI (NCI/ADR-RES ovarian): > 100 µM
- TGI (OVCAR-3 ovarian): > 100 µM
- TGI (OVCAR-4 ovarian): > 100 µM
- TGI (OVCAR-5 ovarian): > 100 µM
- TGI (OVCAR-8 ovarian): > 100 µM
- TGI (PC-3 prostate): > 100 µM
- TGI (RPMI-8226 leukemia): > 100 µM
- TGI (RXF 393 renal): > 100 µM
- TGI (SF-268 CNS): > 100 µM
- TGI (SF-295 CNS): > 100 µM
- TGI (SF-539 CNS): > 100 µM
- TGI (SK-MEL-2 melanoma): > 100 µM
- TGI (SK-MEL-28 melanoma): > 100 µM
- TGI (SK-OV-3 ovarian): > 100 µM
- TGI (SN12C renal): > 100 µM
- TGI (SNB-19 CNS): > 100 µM
- TGI (SR leukemia): > 100 µM
- TGI (SW-620 colon): > 100 µM
- TGI (T-47D breast): > 100 µM
- TGI (TK-10 renal): > 100 µM
- TGI (U251 CNS): > 100 µM
- TGI (UACC-257 melanoma): > 100 µM
- TGI (UACC-62 melanoma): > 100 µM
- TGI (UO-31 renal): > 100 µM

Source: PubChem BioAssay (NCI)
